Patent publication US7446199B2, “Compositions useful as inhibitors of protein kinases” (Vertex Pharmaceuticals Incorporated, priority 2003, dated 2008)

What was measured:
Assay type in all cases: biochemical
c-Met = c-Met (Homo sapiens, UniProt P08581); assay: Ki determination for the inhibition of c-Met, coupled enzyme system; conditions: 200 μM ATP, 10 μM polyGluTyr, 80 nM c-Met, 30° C.
In short: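 Coupled pyruvate kinase/lactate dehydrogenase NADH assay with 80 nM c-Met, 200 μM ATP, 10 μM polyGluTyr in pH 7.5 HEPES, 1.5% DMSO at 30° C. Compound (0.006–12.5 μM final, 12-point) preincubated 10 min; ATP started reaction, rates read over 10 min; Ki derived from rate versus inhibitor concentration.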

KDR = KDR (Homo sapiens, UniProt P35968); assay: KDR enzyme assay, coupled enzyme assay; conditions: 300 μM ATP, 10 μM poly E4Y, 30 nM KDR, 37° C.
In short: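 Coupled enzyme (PK/LDH, NADH) assay with 30 nM KDR in 200 mM HEPES 7.5, 10 mM MgCl2, 25 mM NaCl, 1 mM DTT, 1.5% DMSO; 300 μM ATP, 10 μM poly E4Y. Compound at 30 μM final, preincubated ~10 min at 37 °C before ATP start; rates read over 5 min at 37 °C.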

c-KIT = target: T1, c-KIT (Homo sapiens, UniProt P10721); assay: Inhibition of c-KIT, radiometric filter-binding assay; conditions: 700 μM ATP, 0.5 mg/mL pE4Y, room temperature
T1 construct: 0.02% BSA and 25 nM c-KIT
In short: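 Radiometric filter-binding: 25 nM c-KIT (enzyme in the Solution 2 mix) with poly(Glu,Tyr) 4:1 substrate at 0.5 mg/mL and [γ-^33P]ATP at 700 μM (both final), in HEPES pH 7.5/MgCl2/NaCl/DTT/BSA with 2.5% DMSO. Incubated 20 min at room temperature, stopped with TCA, and ^33P incorporation counted on filters. 12-point titration, final compound typically 0.01-5 μM; IC50 or Ki from curve fit.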

Chain of c-Met (P08581 25-1390): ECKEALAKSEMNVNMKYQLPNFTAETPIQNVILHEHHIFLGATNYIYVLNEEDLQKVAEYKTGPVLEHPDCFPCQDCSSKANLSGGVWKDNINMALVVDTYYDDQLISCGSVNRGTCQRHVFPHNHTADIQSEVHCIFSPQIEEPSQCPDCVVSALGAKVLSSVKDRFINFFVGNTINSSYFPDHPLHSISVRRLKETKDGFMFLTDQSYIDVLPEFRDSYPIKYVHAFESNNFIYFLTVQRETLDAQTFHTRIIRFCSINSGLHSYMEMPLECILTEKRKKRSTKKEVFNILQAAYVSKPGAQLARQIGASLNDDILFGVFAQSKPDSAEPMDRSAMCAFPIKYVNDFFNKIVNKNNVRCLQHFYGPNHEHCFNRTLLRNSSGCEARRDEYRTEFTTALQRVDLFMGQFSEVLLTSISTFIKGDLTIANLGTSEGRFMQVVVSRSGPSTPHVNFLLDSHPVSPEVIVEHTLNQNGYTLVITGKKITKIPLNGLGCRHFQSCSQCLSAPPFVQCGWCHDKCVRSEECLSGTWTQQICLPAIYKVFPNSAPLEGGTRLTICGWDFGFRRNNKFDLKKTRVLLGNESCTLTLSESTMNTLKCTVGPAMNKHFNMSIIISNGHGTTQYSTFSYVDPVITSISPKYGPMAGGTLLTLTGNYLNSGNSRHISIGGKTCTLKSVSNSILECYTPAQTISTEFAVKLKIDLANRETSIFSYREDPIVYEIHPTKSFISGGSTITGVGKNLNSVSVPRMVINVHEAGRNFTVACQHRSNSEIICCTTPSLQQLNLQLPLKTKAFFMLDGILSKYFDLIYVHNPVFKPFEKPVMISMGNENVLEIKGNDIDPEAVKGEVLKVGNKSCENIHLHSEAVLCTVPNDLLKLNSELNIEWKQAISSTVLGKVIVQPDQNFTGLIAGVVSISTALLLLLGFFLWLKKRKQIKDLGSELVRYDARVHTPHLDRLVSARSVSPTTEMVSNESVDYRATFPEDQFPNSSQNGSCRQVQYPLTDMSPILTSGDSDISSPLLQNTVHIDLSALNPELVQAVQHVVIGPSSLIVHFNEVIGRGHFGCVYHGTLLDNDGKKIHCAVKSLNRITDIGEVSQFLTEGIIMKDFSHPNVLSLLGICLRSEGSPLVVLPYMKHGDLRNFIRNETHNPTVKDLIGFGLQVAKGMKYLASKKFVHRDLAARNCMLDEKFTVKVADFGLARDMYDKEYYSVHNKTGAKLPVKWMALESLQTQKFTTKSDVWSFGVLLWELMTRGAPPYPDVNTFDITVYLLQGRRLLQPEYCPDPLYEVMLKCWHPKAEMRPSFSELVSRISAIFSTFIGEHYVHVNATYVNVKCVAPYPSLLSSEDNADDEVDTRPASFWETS
Chain of KDR (P35968 20-1356): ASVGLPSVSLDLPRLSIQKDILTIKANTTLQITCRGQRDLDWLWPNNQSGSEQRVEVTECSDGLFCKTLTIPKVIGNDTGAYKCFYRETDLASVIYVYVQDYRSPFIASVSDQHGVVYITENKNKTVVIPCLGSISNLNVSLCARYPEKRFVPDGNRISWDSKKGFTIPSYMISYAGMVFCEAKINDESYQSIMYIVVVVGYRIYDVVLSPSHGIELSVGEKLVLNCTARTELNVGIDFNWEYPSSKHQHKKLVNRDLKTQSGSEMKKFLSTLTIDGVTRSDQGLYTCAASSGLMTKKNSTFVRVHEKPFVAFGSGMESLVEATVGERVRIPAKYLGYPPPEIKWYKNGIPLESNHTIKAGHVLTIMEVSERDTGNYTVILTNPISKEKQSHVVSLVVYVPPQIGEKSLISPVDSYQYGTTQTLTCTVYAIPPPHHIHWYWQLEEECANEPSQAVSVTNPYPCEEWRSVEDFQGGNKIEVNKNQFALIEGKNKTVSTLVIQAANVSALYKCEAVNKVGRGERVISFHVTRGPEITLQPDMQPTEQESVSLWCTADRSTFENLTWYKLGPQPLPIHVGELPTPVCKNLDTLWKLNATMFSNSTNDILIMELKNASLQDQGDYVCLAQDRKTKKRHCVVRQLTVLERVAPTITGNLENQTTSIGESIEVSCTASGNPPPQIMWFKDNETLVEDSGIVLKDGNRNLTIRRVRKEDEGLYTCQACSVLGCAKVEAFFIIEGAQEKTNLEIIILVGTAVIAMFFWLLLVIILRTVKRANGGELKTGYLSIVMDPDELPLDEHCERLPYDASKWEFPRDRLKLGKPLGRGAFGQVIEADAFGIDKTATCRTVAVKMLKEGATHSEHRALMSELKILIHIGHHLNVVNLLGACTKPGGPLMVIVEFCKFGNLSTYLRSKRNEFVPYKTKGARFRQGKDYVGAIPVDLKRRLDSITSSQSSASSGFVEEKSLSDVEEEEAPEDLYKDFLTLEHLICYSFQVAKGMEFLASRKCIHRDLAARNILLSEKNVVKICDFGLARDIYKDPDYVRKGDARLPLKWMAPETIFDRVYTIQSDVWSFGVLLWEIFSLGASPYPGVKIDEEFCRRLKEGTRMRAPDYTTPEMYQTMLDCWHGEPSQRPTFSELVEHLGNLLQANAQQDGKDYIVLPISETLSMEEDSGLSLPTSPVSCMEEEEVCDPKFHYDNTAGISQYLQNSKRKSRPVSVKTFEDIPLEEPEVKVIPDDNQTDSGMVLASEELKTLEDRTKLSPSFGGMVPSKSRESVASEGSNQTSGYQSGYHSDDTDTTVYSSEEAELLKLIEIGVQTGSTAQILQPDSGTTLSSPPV
T1 sequence (P10721 26-976): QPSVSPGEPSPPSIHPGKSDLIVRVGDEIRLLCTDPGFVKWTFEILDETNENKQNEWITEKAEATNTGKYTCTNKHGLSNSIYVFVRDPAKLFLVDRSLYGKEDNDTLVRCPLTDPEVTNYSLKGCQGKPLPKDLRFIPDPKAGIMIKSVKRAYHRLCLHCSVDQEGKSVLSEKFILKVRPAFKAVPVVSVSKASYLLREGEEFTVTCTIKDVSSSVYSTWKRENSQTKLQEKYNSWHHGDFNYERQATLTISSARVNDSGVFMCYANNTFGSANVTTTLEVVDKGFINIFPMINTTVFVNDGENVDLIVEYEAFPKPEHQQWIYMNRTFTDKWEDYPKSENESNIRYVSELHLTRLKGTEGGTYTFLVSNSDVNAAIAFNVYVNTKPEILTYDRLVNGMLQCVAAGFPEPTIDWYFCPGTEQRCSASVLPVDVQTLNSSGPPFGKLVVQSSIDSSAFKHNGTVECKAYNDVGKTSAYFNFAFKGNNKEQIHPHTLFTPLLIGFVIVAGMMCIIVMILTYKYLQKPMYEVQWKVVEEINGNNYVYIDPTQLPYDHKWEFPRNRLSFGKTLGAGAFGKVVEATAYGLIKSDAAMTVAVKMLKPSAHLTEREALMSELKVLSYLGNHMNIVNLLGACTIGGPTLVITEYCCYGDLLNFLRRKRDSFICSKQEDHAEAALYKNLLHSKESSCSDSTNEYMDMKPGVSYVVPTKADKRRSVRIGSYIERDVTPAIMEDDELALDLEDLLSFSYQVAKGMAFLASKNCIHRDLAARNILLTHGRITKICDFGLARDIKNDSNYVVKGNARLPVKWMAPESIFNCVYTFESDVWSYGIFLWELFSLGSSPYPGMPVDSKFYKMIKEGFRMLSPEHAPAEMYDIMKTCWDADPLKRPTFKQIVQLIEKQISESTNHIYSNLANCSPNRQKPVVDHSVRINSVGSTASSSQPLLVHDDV

Ki (c-Met) | Ki (KDR) | Ki (c-KIT) | SMILES
< 200 nM | < 200 nM | 200 to 1000 nM | Oc1cnc2[nH]cc(-c3oncc3-c3cccc(Cl)c3Cl)c2c1 [Compound 48, 3-[4-(2,3-Dichloro-phenyl)-isoxazol-5-yl]-1H-pyrrolo[2,3-b]pyridin-5-ol]
< 200 nM | < 200 nM | < 200 nM | O=c1ccc(-c2cnc3[nH]cc(-c4oncc4-c4cccc(F)c4F)c3c2)c[nH]1 [Compound 67, 5-{3-[4-(2,3-Difluoro-phenyl)-isoxazol-5-yl]-1H-pyrrolo [2,3-b]pyridin-5-yl}-1H-pyridin-2-one]

The remaining lines, values behind:

SMILES | Ki (c-Met) | Ki (KDR) | Ki (c-KIT)
Fc1cccc(-n2cnnc2-c2c[nH]c3ncc(-c4ccc(N5CCCC5)nc4)cc23)c1F [Compound 118, 3-[4-(2,3-Difluoro-phenyl)-4H-[1,2,4]triazol-3-yl]-5-(6-pyrrolidin-1-yl-pyridin-3-yl)-1H-pyrrolo[2,3-b]pyridine] | < 200 nM | 200 to 1000 nM | 200 to 1000 nM
CN(C)c1cccc(-c2cnc3[nH]cc(-c4oncc4-c4cccc(F)c4F)c3c2)c1 [Compound 61, (3-{3-[4-(2,3-Difluoro-phenyl)-isoxazol-5-yl]-1H-pyrrolo[2,3-b]pyridin-5-yl}-phenyl)-dimethyl-amine] | < 200 nM | 200 to 1000 nM | < 200 nM
COc1cnc2[nH]cc(-c3oncc3-c3cccc(Cl)c3Cl)c2c1 [Compound 49, 3-[4-(2,3-Dichloro-phenyl)-isoxazol-5-yl]-5-methoxy-1H-pyrrolo[2,3-b]pyridine] | < 200 nM | < 200 nM | < 200 nM
Clc1cccc(-c2cnoc2-c2c[nH]c3ncc(-c4cccnc4)cc23)c1Cl [Compound 99, 3-[4-(2,3-Dichloro-phenyl)-isoxazol-5-yl]-5-pyridin-3-yl-1H-pyrrolo[2,3-b]pyridine] | < 200 nM | < 200 nM | < 200 nM
